Test results: US7132252B2, “Methods for detecting the interaction of compounds with cytochrome P450 using optical molecular sensors” (Invitrogen Corporation, priority 1998, dated 2006)
Where “and” joins values, the source holds several entries; their conditions need not be identical. Equal entries are not always repeated. Values belong to the molecule of their own block, whether it stands above or below them.

Experiments:
[1] = target: T1, CYP3A4 (Homo sapiens, UniProt P08684); assay: Kinetic properties of fluorogenic substrates with CYP 3A4; assay type: biochemical; conditions: for v (1.25 uM): turnover rate at 1.25 uM substrate; for v (10 uM): turnover rate at 10 uM substrate
T1 sequence (P08684 whole entry): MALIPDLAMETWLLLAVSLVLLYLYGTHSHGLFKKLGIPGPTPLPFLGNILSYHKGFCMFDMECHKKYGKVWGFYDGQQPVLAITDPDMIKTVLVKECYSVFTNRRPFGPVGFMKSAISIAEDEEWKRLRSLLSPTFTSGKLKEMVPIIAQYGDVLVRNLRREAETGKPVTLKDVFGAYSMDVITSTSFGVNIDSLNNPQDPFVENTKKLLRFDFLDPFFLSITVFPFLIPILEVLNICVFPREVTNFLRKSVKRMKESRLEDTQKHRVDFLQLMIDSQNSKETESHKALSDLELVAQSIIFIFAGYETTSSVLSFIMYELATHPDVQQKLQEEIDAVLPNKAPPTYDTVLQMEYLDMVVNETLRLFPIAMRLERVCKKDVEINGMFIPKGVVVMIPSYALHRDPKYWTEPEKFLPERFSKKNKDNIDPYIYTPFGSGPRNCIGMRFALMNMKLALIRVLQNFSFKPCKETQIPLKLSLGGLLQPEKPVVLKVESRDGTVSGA
Text: For further understanding these terms in the context of this invention, attention is directed to FIG. 4 and the analysis of FIG. 4.
(§1) (respectively, MFC and MR).

[2] = target: T2, CYP2C19 (Homo sapiens, UniProt P33261); assay: Kinetic properties of fluorogenic substrates with CYP 2C19; assay type: biochemical; conditions: for v (1.25 uM): turnover rate at 1.25 uM substrate; for v (1.25 uM) / v (10 uM): — = too low to quantify; for v (10 uM): turnover rate at 10 uM substrate
T2 sequence (P33261 whole entry): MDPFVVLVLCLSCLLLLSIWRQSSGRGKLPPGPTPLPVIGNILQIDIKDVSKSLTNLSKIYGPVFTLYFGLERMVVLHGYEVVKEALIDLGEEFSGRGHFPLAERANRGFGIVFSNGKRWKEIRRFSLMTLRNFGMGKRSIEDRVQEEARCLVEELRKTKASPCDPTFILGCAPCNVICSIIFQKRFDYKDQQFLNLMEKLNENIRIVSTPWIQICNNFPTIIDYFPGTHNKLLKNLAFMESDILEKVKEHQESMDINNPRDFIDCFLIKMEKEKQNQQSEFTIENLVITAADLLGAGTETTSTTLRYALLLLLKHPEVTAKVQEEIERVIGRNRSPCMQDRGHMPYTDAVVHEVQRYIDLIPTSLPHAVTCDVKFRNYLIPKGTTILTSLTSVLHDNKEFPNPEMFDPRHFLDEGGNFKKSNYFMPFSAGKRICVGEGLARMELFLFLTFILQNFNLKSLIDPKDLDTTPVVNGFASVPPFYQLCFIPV

[3] = target: T3, CYP2C9 (Homo sapiens, UniProt P11712); assay: Kinetic properties of fluorogenic substrates with CYP 2C9; assay type: biochemical; conditions: for v (1.25 uM): turnover rate at 1.25 uM substrate; for v (10 uM): turnover rate at 10 uM substrate
T3 sequence (P11712 whole entry): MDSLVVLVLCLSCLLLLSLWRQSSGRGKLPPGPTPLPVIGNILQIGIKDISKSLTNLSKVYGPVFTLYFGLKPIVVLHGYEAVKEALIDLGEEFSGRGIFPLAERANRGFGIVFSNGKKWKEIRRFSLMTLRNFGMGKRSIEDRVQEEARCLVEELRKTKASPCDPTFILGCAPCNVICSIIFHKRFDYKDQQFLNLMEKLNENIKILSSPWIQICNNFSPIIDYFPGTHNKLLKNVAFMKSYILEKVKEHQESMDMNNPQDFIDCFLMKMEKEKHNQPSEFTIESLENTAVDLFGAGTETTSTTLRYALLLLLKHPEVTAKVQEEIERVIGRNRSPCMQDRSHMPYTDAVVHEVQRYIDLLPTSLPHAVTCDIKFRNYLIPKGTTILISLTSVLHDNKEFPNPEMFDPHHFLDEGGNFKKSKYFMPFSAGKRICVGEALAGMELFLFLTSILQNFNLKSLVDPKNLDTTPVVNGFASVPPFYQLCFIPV

[4] = target: T4, CYP 2B6 (Homo sapiens, UniProt P20813); assay: Kinetic properties of fluorogenic substrates with CYP 2B6; assay type: biochemical
T4 sequence (P20813 1-491): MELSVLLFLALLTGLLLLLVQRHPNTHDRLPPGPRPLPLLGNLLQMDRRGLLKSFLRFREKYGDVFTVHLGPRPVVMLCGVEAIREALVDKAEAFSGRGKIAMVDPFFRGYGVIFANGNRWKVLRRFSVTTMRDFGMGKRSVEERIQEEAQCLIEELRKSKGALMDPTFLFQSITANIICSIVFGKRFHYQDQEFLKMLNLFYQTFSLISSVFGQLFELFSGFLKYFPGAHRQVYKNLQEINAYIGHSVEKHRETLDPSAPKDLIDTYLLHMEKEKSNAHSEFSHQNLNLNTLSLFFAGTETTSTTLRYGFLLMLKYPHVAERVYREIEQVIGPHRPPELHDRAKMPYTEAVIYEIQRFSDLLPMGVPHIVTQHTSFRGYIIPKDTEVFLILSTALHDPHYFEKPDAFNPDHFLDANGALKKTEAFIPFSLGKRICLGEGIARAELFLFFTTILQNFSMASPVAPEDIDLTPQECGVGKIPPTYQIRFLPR

[5] = target: T1, CYP3A4; assay: Fluorescence signal from enzymatic metabolism over reagent addition background, CYP3A4; assay type: biochemical; conditions: BOMR vs benzylresorufin (FIG. 8); BOMCC vs BFC (FIG. 9)
Experimental: (§2) The assays were performed in a 96-well plate at room temperature and at a volume of 100 μl/well. […] (See Table 11.) The enzyme was made up in the appropriate K+ phosphate buffer at 10× and 10 μl/well was-added to the appropriate wells. (See Table 11.) The plate was read at 3 minute intervals for 12 minutes to obtain a background fluorescence levels. Readings were briefly interrupted to allow for the addition of 10 μl of 10×NADP+ in K+ phosphate buffer to each well. (See Table 11.) The readings were resumed at 3 minute intervals for another 12 minutes. […] To permit quantitative comparison between sensors that were or would be metabolized to yield fluorescent products of differing optical properties, the signal intensity corresponding to each well was normalized by division with the initial signal intensity (wells containing enzyme and buffer). […] The later increase in signal, approximately four minutes after the second addition and at later time points, is believed to be due to the enzymatic conversion of the substrate to the product. […] [table]

[6] = target: T3, CYP2C9; assay: Fluorescence signal from enzymatic metabolism over reagent addition background, CYP2C9; assay type: biochemical; conditions: OOMR and BOMCC vs MFC (FIG. 11)
Experimental: as §2

[7] = target: T5, CYP 1A2 (Homo sapiens, UniProt P05177); assay: Kinetic properties of fluorogenic substrates with CYP 1A2; assay type: biochemical
T5 sequence (P05177 1-516): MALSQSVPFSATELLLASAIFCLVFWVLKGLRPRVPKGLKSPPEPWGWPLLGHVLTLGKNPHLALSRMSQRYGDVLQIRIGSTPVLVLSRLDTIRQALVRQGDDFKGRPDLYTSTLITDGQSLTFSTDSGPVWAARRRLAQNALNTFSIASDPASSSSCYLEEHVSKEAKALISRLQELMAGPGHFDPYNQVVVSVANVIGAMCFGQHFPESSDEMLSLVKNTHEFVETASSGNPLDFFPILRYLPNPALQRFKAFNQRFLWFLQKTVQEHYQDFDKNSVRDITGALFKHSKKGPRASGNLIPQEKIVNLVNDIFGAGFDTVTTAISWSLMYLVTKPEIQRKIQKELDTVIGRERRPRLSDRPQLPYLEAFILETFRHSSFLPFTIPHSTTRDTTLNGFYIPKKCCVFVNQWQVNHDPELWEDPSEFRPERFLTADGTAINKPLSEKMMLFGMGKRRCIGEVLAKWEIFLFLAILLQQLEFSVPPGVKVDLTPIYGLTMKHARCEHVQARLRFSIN

[8] = target: T2, CYP2C19; assay: Fluorescence signal from enzymatic metabolism over reagent addition background, CYP2C19; assay type: biochemical; conditions: EOMCC vs CEC (FIG. 12)
Experimental: as §2

[9] = target: T6, CYP2D6 (Homo sapiens, UniProt P10635); assay: Kinetic properties of fluorogenic substrates with CYP 2D6; assay type: biochemical
T6 sequence (P10635 whole entry): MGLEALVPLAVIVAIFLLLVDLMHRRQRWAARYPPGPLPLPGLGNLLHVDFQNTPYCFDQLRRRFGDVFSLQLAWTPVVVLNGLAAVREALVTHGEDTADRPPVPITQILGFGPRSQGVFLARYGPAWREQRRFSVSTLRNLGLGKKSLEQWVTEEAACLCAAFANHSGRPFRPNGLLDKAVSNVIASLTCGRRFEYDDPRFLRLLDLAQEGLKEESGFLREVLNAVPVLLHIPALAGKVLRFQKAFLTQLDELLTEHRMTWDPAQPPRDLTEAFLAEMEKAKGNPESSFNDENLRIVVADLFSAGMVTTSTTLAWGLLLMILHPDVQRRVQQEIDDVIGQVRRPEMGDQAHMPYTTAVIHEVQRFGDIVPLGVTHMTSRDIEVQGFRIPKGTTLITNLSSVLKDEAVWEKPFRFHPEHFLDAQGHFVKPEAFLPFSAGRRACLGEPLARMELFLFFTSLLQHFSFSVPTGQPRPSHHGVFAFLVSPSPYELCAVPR
Text: as §1

[10] = target: T6, CYP2D6; assay: Fluorescence signal from enzymatic metabolism over reagent addition background, CYP2D6; assay type: biochemical; conditions: MOBFC vs AMMC (Gentest) (FIG. 10)
Experimental: as §2

[11] = Stability of substrate stock solution; assay type: physicochemical; conditions: 10 mM in acetonitrile, stored at 4° C. in the dark
Experimental: Substrate stock solutions were stable when stored at 4° C. in the dark. 7-Hydroxy-4trifluoromethylcoumarin dye standard was prepared at 1 mM in DMSO. […] Control wells receive the appropriate inhibition controls for each isozyme. Also, inhibitors are added to wells that contain the dye standards to permit addition of substrate and enzyme to all wells of the plate. • 2. […] 30 μl/well Enzyme/Recycling System buffer was added.

[12] = target: T1, CYP3A4; assay: in vitro; conditions: pH 8
Text: Data for a product fluorescence standard calibration curve was generated in the following manner.

[13] = turnover rate at 1.25 uM substrate, — = too low to quantify
[14] = turnover rate at 10 uM substrate, — = too low to quantify

type of kinetics [1]: sigmoidal
kcat ([1]; ( ) = from Michaelis-Menten fit, — = too low to quantify): (10.0) min-1
v (1.25 uM) ([1]; — = too low to quantify): 0.12 min⁻¹
v (10 uM) ([1]; — = too low to quantify): 0.98 min⁻¹
type of kinetics [2]: Michaelis-Menten
v (1.25 uM) [2]: 0.16 min⁻¹
v (10 uM) [2]: 0.68 min⁻¹
type of kinetics [3]: Michaelis-Menten
v (1.25 uM) ([3]; — = too low to quantify): 0.04 min⁻¹
v (10 uM) ([3]; — = too low to quantify): 0.42 min⁻¹
type of kinetics [4]: Michaelis-Menten
Km ([4]; human, CYP 2B6 isozyme, — = too low to quantify): 52 µM
v (1.25 uM) [4, 13]: 0.38 min⁻¹
v (10 uM) [4, 14]: 3.05 min⁻¹
kcat ([4]; — = too low to quantify): 1.1 s⁻¹
signal to background versus prior commercially available substrate [5]: superior signal to background
signal to background versus prior commercially available substrate [6]: superior signal to background
SMILES: N#Cc1cc2ccc(OCOCc3ccccc3)cc2oc1=O [BOMCC, 7-Benzyloxymethyloxy-3-cyanocoumarin]

type of kinetics [2]: Michaelis-Menten
v (1.25 uM) [2]: 0.34 min⁻¹
v (10 uM) [2]: 2.22 min⁻¹
type of kinetics [7]: Michaelis-Menten
v (1.25 uM) ([7]; turnover rate at 1.25 uM substrate): 1.77 min⁻¹
v (10 uM) ([7]; turnover rate at 10 uM substrate): 9.95 min⁻¹
signal to background versus prior commercially available substrate [8]: superior signal to background
SMILES: CCOCOc1ccc2cc(C#N)c(=O)oc2c1 [EOMCC]

type of kinetics [1]: Michaelis-Menten
v (1.25 uM) ([1]; — = too low to quantify): 0.0214 min⁻¹ and 0.02 min⁻¹
v (10 uM) ([1]; — = too low to quantify): 0.3453 min⁻¹ and 0.35 min⁻¹
type of kinetics [3]: Michaelis-Menten
v (1.25 uM) ([3]; — = too low to quantify): 0.02 min⁻¹
v (10 uM) ([3]; — = too low to quantify): 0.188 min⁻¹ and 0.19 min⁻¹
kcat ([3]; — = too low to quantify): 0.005 s⁻¹
type of kinetics [9]: Michaelis-Menten
v (1.25 uM) [9, 13]: 0.09 min⁻¹
v (10 uM) [9, 14]: 0.49 min⁻¹
signal to background versus prior commercially available substrate [10]: superior signal to background
stability of substrate stock solutions [11]: stable
SMILES: COc1ccc(COc2ccc3c(C(F)(F)F)cc(=O)oc3c2)cc1 [MOBFC]

SMILES: Clc1ccc(COC(Cn2ccnc2)c2ccc(Cl)cc2Cl)c(Cl)c1 (stereo not shown) [miconazole]
inhibition at 1 h, 10 µM [12]: ~100%
